The assay has as its target M. tuberculosis Rho (MtbRho) (Mycobacterium tuberculosis, UniProt P9WHF3, M495L). The assay is classed as biochemical.

Each structure is given as a SMILES string.

The text below walks through data of PMC8828861 (Communications Biology, 2022).

For `Nc1ncnc2c1ncn2[C@@H]1O[C@H](COP(=O)(O)OP(=O)(O)OP(=O)(O)O)[C@@H](O)[C@H]1O` [ATP], the “TLC NTP hydrolysis assay with poly[rC]” value is given as “the M495L mutant hydrolyses ATP at a steady-state rate similar to that measured for EcRho”.
